Test results taken from patent US11090313B2, “Methods for inhibiting muscle atrophy” (UNIVERSITY OF IOWA RESEARCH FOUNDATION, priority 2010, dated 2021).

Tested on: gastrocnemius muscle mRNA
Assay: Exon expression arrays of gastrocnemius muscle mRNA in mice fed ursolic acid
Type: in vivo, mouse
Conditions: 0.27% ursolic acid in chow 5 weeks
Procedure: Following harvest, skeletal muscle samples were immediately placed in RNAlater (Ambion) and stored at −80° C. until further use. […] These raw microarray data from humans and mice have been deposited in NCBI's Gene Expression Omnibus (“GEO”) and are accessible through GEO Series accession numbers GSE28016 and GSE28017, respectively. Exon array studies of the effects of fasting on mouse skeletal muscle, and the effects of spinal cord injury on human skeletal muscle were described previously (Adams C M, et al. (2011) Muscle & nerve 43(1):65-75; Ebert S M, et al. (2010) Molecular Endocrinology 24(4):790-799).
To test this hypothesis, an unbiased approach was used, specifically exon expression arrays were used to analyze gastrocnemius muscle mRNA expression in mice that had been fed diets lacking or containing ursolic acid for 5 weeks. […] Each array assessed pooled gastrocnemius RNA from two mice. Stringent criteria were used for ursolic acid-induced effects on mRNA levels (P<0.005), and mRNAs with low levels of expression were disregarded (i.e. only transcripts that were increased to a mean log2 hybridization signal ≥8, or repressed from a mean log2 hybridization signal ≥8 were included).

C[C@H]1[C@H](C)CC[C@]2(C(=O)O)CC[C@]3(C)C(=CC[C@@H]4[C@@]5(C)CC[C@H](O)C(C)(C)[C@@H]5CC[C@]43C)[C@H]12 [ursolic acid]
levels of mRNAs encoding myostatin, twist or myogenin (gastrocnemius): did not alter levels of mRNAs encoding myostatin | levels of IGF1 exons (exons 2-6) (gastrocnemius exon arrays): increased levels of all measured IGF1 exons | 2310016M24Rik mRNA Change (mean log2, ursolic acid diet minus control diet) (mice, gastrocnemius): 0.12 log2 | 2610507B11Rik mRNA Change (mean log2, ursolic acid diet minus control diet) (mice, gastrocnemius): 0.14 log2 | Acadm mRNA Change (mean log2, ursolic acid diet minus control diet) (mice, gastrocnemius): −0.11 log2 | Adprhl1 mRNA Change (mean log2, ursolic acid diet minus control diet) (mice, gastrocnemius): −0.26 log2 | Ahsa2 mRNA Change (mean log2, ursolic acid diet minus control diet) (mice, gastrocnemius): 0.18 log2 | Arfgap2 mRNA Change (mean log2, ursolic acid diet minus control diet) (mice, gastrocnemius): 0.30 log2 | Asb5 mRNA Change (mean log2, ursolic acid diet minus control diet) (mice, gastrocnemius): 0.21 log2 | BC004004 mRNA Change (mean log2, ursolic acid diet minus control diet) (mice, gastrocnemius): 0.06 log2 | C3 mRNA Change (mean log2, ursolic acid diet minus control diet) (mice, gastrocnemius): 0.70 log2 | Cacna1s mRNA Change (mean log2, ursolic acid diet minus control diet) (mice, gastrocnemius): −0.22 log2 | Cd24a mRNA Change (mean log2, ursolic acid diet minus control diet) (mice, gastrocnemius): 0.28 log2 | Ctsb mRNA Change (mean log2, ursolic acid diet minus control diet) (mice, gastrocnemius): 0.16 log2 | D0H4S114 mRNA Change (mean log2, ursolic acid diet minus control diet) (mice, gastrocnemius): 0.15 log2 | D4Wsu53e mRNA Change (mean log2, ursolic acid diet minus control diet) (mice, gastrocnemius): −0.18 log2 | Ddit4l mRNA Change (mean log2, ursolic acid diet minus control diet) (mice, gastrocnemius): −0.32 log2 | Eef1e1 mRNA Change (mean log2, ursolic acid diet minus control diet) (mice, gastrocnemius): 0.15 log2 | Eif4g3 mRNA Change (mean log2, ursolic acid diet minus control diet) (mice, gastrocnemius): −0.12 log2 | Fbp2 mRNA Change (mean log2, ursolic acid diet minus control diet) (mice, gastrocnemius): 0.37 log2 | Fbxo32 (Atrogin-1) mRNA Change (mean log2, ursolic acid diet minus control diet) (mice, gastrocnemius): −0.35 log2 | Fhl3 mRNA Change (mean log2, ursolic acid diet minus control diet) (mice, gastrocnemius): 0.31 log2 | Fmo1 mRNA Change (mean log2, ursolic acid diet minus control diet) (mice, gastrocnemius): 0.47 log2 | Foxn3 mRNA Change (mean log2, ursolic acid diet minus control diet) (mice, gastrocnemius): −0.09 log2 | Gfm1 mRNA Change (mean log2, ursolic acid diet minus control diet) (mice, gastrocnemius): 0.12 log2 | Ggct mRNA Change (mean log2, ursolic acid diet minus control diet) (mice, gastrocnemius): 0.24 log2 | Ghitm mRNA Change (mean log2, ursolic acid diet minus control diet) (mice, gastrocnemius): 0.05 log2 | Golga4 mRNA Change (mean log2, ursolic acid diet minus control diet) (mice, gastrocnemius): −0.14 log2 | Gpx1 mRNA Change (mean log2, ursolic acid diet minus control diet) (mice, gastrocnemius): 0.36 log2 | H19 mRNA Change (mean log2, ursolic acid diet minus control diet) (mice, gastrocnemius): 0.39 log2 | Hipk2 mRNA Change (mean log2, ursolic acid diet minus control diet) (mice, gastrocnemius): 0.38 log2 | Hk2 mRNA Change (mean log2, ursolic acid diet minus control diet) (mice, gastrocnemius): 0.26 log2 | Hspb8 mRNA Change (mean log2, ursolic acid diet minus control diet) (mice, gastrocnemius): 0.32 log2 | Hsph1 mRNA Change (mean log2, ursolic acid diet minus control diet) (mice, gastrocnemius): 0.30 log2 | Igf1 mRNA Change (mean log2, ursolic acid diet minus control diet) (mice, gastrocnemius): 0.56 log2 | Klhl31 mRNA Change (mean log2, ursolic acid diet minus control diet) (mice, gastrocnemius): −0.09 log2 | Krr1 mRNA Change (mean log2, ursolic acid diet minus control diet) (mice, gastrocnemius): 0.15 log2 | Lsm14a mRNA Change (mean log2, ursolic acid diet minus control diet) (mice, gastrocnemius): 0.18 log2 | Lum mRNA Change (mean log2, ursolic acid diet minus control diet) (mice, gastrocnemius): 0.61 log2 | Lyz2 mRNA Change (mean log2, ursolic acid diet minus control diet) (mice, gastrocnemius): 0.71 log2 | Mlec mRNA Change (mean log2, ursolic acid diet minus control diet) (mice, gastrocnemius): −0.19 log2 | Mrpl46 mRNA Change (mean log2, ursolic acid diet minus control diet) (mice, gastrocnemius): 0.15 log2 | Musk mRNA Change (mean log2, ursolic acid diet minus control diet) (mice, gastrocnemius): 0.31 log2 | Nampt mRNA Change (mean log2, ursolic acid diet minus control diet) (mice, gastrocnemius): 0.41 log2 | Ndufaf4 mRNA Change (mean log2, ursolic acid diet minus control diet) (mice, gastrocnemius): 0.14 log2 | Ndufs2 mRNA Change (mean log2, ursolic acid diet minus control diet) (mice, gastrocnemius): 0.14 log2 | Ndufs4 mRNA Change (mean log2, ursolic acid diet minus control diet) (mice, gastrocnemius): 0.14 log2 | Nnt mRNA Change (mean log2, ursolic acid diet minus control diet) (mice, gastrocnemius): −0.24 log2 | Npc1 mRNA Change (mean log2, ursolic acid diet minus control diet) (mice, gastrocnemius): 0.22 log2 | Nrap mRNA Change (mean log2, ursolic acid diet minus control diet) (mice, gastrocnemius): −0.14 log2 | Ostn mRNA Change (mean log2, ursolic acid diet minus control diet) (mice, gastrocnemius): 0.43 log2 | Paip2b mRNA Change (mean log2, ursolic acid diet minus control diet) (mice, gastrocnemius): −0.16 log2 | Parp3 mRNA Change (mean log2, ursolic acid diet minus control diet) (mice, gastrocnemius): 0.32 log2 | Pde4dip mRNA Change (mean log2, ursolic acid diet minus control diet) (mice, gastrocnemius): −0.18 log2 | Pdha1 mRNA Change (mean log2, ursolic acid diet minus control diet) (mice, gastrocnemius): 0.18 log2 | Pnn mRNA Change (mean log2, ursolic acid diet minus control diet) (mice, gastrocnemius): −0.18 log2 | Prdx5 mRNA Change (mean log2, ursolic acid diet minus control diet) (mice, gastrocnemius): 0.10 log2 | Psma2 mRNA Change (mean log2, ursolic acid diet minus control diet) (mice, gastrocnemius): 0.15 log2 | Sepp1 mRNA Change (mean log2, ursolic acid diet minus control diet) (mice, gastrocnemius): 0.35 log2 | Sepx1 mRNA Change (mean log2, ursolic acid diet minus control diet) (mice, gastrocnemius): 0.28 log2 | Sfpq mRNA Change (mean log2, ursolic acid diet minus control diet) (mice, gastrocnemius): −0.18 log2 | Sfrs5 mRNA Change (mean log2, ursolic acid diet minus control diet) (mice, gastrocnemius): −0.22 log2 | Smox mRNA Change (mean log2, ursolic acid diet minus control diet) (mice, gastrocnemius): 0.81 log2 | Sod2 mRNA Change (mean log2, ursolic acid diet minus control diet) (mice, gastrocnemius): 0.12 log2 | Sqstm1 mRNA Change (mean log2, ursolic acid diet minus control diet) (mice, gastrocnemius): 0.12 log2 | Ssr4 mRNA Change (mean log2, ursolic acid diet minus control diet) (mice, gastrocnemius): 0.14 log2 | Trappc2l mRNA Change (mean log2, ursolic acid diet minus control diet) (mice, gastrocnemius): 0.16 log2 | Trip10 mRNA Change (mean log2, ursolic acid diet minus control diet) (mice, gastrocnemius): 0.23 log2 | Tyrobp mRNA Change (mean log2, ursolic acid diet minus control diet) (mice, gastrocnemius): 0.69 log2 | Ube2l3 mRNA Change (mean log2, ursolic acid diet minus control diet) (mice, gastrocnemius): 0.16 log2 | Vps29 mRNA Change (mean log2, ursolic acid diet minus control diet) (mice, gastrocnemius): 0.20 log2
